Laboratory results as given in patent US10927348B2, “Human adipose tissue white and ‘brown-on-white’ progenitors for reconstructive and metabolic therapies” (University of Massachusetts, priority 2014, dated 2021).
Entries after “also recorded” stand apart in the source; their conditions may differ. Where a name gives a salt, the structure may show the parent alone.

Test system: differentiated HACAPS
Assay: RT-PCR gene expression in differentiated HACAPS exposed to forskolin or isoproterenol
Assay type: cell-based, human
Conditions: isoproterenol for 6 hours after adipogenic differentiation, hydrochloride

CC(C)NCC(O)c1ccc(O)c(O)c1 (stereo not shown) [isoproterenol, Isoproterenol hydrochloride]
UCP1 mRNA expression: acute increase; also recorded: pronounced increase
